Assay results from patent US20230035127A1, “CULTURE AND DIFFERENTIATION OF PLURIPOTENT STEM CELLS” (University of Maryland, College Park, priority 2021, published 2023).

Test system: IMR90-1 human iPSCs
Assay: Flow cytometry of IMR90-1 cardiac spheroids
Type: cell-based
Conditions: day 12.5
Description: For flow cytometry, the eiPSC spheroids were collected on day 0 and the cardiac spheroids were collected on days 1.5, 2.5, 12.5, 15. The spheroids were dissociated to single cells by 0.25% trypsin for 5 min at 37° C. and then fixed with 75% ethanol at 4° C. overnight. The cells were permeabilized with 0.05% Triton X-100 for 3 min and then rinsed with 1×PBS twice. The cell numbers were adjusted to 1×10^6 cells/tube in 700 μL of saline for each marker. These cells were incubated with primary antibodies including OCT-4 (1:500 dilution, Cell Signaling Technologies), NANOG (1:500 dilution, Cell Signaling Technologies), SSEA-4 (1:500 dilution, Cell Signaling Technologies), BRACHYURY (1:500; Santa Cruz Biotechnology), NKX2.5 (1:500; Santa Cruz Biotechnology), cTnT (1:500 dilution, Cell Signaling Technologies), cTnI (1:500 dilution, Cell Signaling Technologies), α-ACTININ (1:500 dilution; Santa Cruz Biotechnology), MUSASHI-1 (1:500; R&D Systems), and TUJ-1 (1:500; R&D Systems) at 4° C. overnight. Subsequently, the samples were rinsed with 1×PBS thrice before incubation with corresponding secondary antibodies: goat anti-mouse IgG FITC and goat anti-rabbit IgG PE, respectively (1:1000; Invitrogen) for 1 h at RT. The samples were then rinsed with 1×PBS thrice before flow cytometry. The negative controls were the cells incubated with respective primary antibodies as aforementioned (no incubation with a secondary antibody).

C[C@@H](N)[C@H]1CC[C@H](C(=O)Nc2ccncc2)CC1.Cl.Cl (relative stereo) [RI, (+)-(R)-trans-4-(1-aminoethyl)-N-(4-pyridyl) cyclo-hexanecarboxamide dihydrochloride]
cells positive for MUSASHI (1 μM RI): negligible | cells positive for cTnT (1 μM RI): 91% | cells positive for MUSASHI (10 μM RI): ~20% | cells positive for cTnT (10 μM RI): 32%
